Experimental data published in patent US12534487B2, “Compounds for use as iron(III) MRI contrast agents” (The Research Foundation for The State University of New York, priority 2017, dated 2026).

Assays:
[1] = test system: mice; experiment: In vivo MRI contrast enhancement in mice at 4.7 T; set-up: species or system mouse
Method: The necessary solubility of the complexes depends on their effectiveness in producing contrast. For Fe(III) T1 contrast agents that have good relaxivity, the complexes need 100 μM-2 mM solubility. However, other additives such as human serum albumin (has) or meglumine may be used to increase solubility and/or increase relaxivity. Solubility is generally measured in aqueous solution at near neutral pH (e.g., 6.5 to 7.5, including all 0.1 pH values and ranges therebetween) in 100 mM NaCl with 25 mM carbonate and 0.4 mM phosphate. The dose of the composition to be used will necessarily be dependent upon the needs of the individual to whom the composition of the disclosure is to be administered. These factors include, but are not necessarily limited to the weight, age, sex, and medical history of the individual. Shown in FIGS. 15, 16, 17, 18, 19, 20 are data from in vivo MRI studies done in mice. The contrast agent, Fe(TOB) was injected at 0.20 mL of 6.3 mM Fe-TOB-HSA (10.5 mg of HAS or two equivalents of megluamine). […] In vivo imaging in mice. Efficacy of the Fe(III) complexes for in vivo contrast enhancement was studied on at 4.7 T Bruker preclinical MRI in a mouse model (BABC/cJ, Jackson Laboratory). Sealed phantoms were included for imaging sessions for signal normalization. Prior to administration of contrast agents, scans were acquired to serve as baseline values of enhancement. […] Compounds were injected intravenously via tail vein at a dose of 50 μmol [Fe]/kg and MR data were acquired continuously for up to 1 hour after injection to study distribution and clearance kinetics. Thus, 0.2 mL of a 6 mM stock solution was injected into the mouse or 0.05 mmol/Kg. Additional scans were acquired at 3 and 6 hours post-injection to characterize slower clearance rates by the biliary system. The FDA-approved […] contrast agent gadopentetate dimeglumine (Gd-DTPA, Magnevist®) was injected into a separate cohort of mice at 50 μmol [Gd]/kg for comparison. For SPGR datasets, signal intensities were normalized to the phantoms and signal increase for each organ was measured, as well as an increase in contrast-to-noise ratios as compared to back muscle. Fe(III) concentrations were estimated by calculating the increase in T1 rates and dividing by the compound's relaxivity value as determined in vitro.

[2] = Phantom (in vitro) MR imaging at 4.7 T: T1 and T2 relaxivity; assay type: physicochemical; settings: neutral pH, Hepes buffer, 37° C.
Method: Eq. 2 predicts that greater numbers of bound water molecules and rapid ligand exchange rate constants (short lifetimes for bound water (Tm)) are advantageous. […] There is an analogous relationship for second-sphere waters although the number and residence time is not well defined. The R1 and R2 relaxivity (from T1 and T2 relaxation rate constants at 4.7 T at 37° C. is shown for several complexes in FIG. 13 and FIG. 14. Data on a 3 Tesla MRI scanner are shown in FIG. 21. Table 1 summarizes R1 and R2 relaxivity data for several Fe(III) complexes.
Preparation of Samples for Phantom MR Imaging: Samples for phantom imaging experiments contained 50-500 μM complex, 20 mM HEPES and 100 mM NaCl. […]
Phantom (in vitro) imaging at 4.7 T. MRI acquisitions were performed using a General Electric 4.7T/33 cm horizontal bore magnet (GE NMR instruments, Fremont, CA) incorporating AVANCE digital electronics (Bruker BioSpec platform with ParaVision v 3.0.2 acquisition software, Bruker Medical, Billerica, MA). […] Signal intensities at each repetition time were sampled by taking the mean intensity within regions of interest (ROI's) using commercially available image processing software (Analyze 7.0, AnalyzeDirect, Overland, KS), and R1 and SMAX were calculated by nonlinear fitting of the equation using Matlab's Curve Fitting Toolbox (Matlab 7.0, MathWorks Inc., Natick, MA). […]

[3] = test system: brain tumors; experiment: MRI scans of mice with brain tumors; assay type: in vivo, mice (C57BL/6NCr); settings: C57BL/6NCr mice, 0.05 or 0.1 mmol/kg
Method: Mice were dosed with Fe(TOB) at 0.05 mmol/kg Fe(TOB) complex or 0.1 mmol/kg Fe(TOB) complex.

[4] = stated in text without conditions; cited from earlier work
[5] = Benzoate oxidation with peroxide and ascorbate (ROS production); settings: 50 μM complex, 50 μM H2O2, 50 μM ascorbate, pH 7.2; [Fe(EDTA)]− oxidation set at 100%
Method: Benzoate oxidation with 50 μM complex, 50 μM H2O2 and 50 μM ascorbate at pH 7.2. [Fe(EDTA)]^− oxidation is set at 100%.
It is desirable that the Fe(III) complex remain in the trivalent oxidation state and not be reduced by, for example, peroxide, superoxide, ascorbate, or by glutathione at concentrations present in the extracellular medium of cells such as, for example, mammalian cells (e.g., human cells). Normally, a redox potential more negative than zero mV (<0 mV) versus NHE is sufficient. If the complex were to be reduced to Fe(II) and the Fe(II) complex and the complex has a positive redox potential versus NHE, reactive oxygen species may be produced, for example, as shown in FIG. 8. For example, [Fe(EDTA)]—has a redox potential of approximately 300 mV and produces ROS as shown by the assay in FIG. 11.

[6] = 50 μmol/kg i.v., 4.7 T, compared with the other agents

CC([O-])CN1CCN(Cc2ccccc2)CCN(CC(C)[O-])CC1.[Fe+3] (stereo not drawn) [Fe(TOB)]
T1 contrast in kidneys [1, 6]: greater contrast than Gd(DTPA) in kidney and liver
T1 contrast in liver [1, 6]: greater contrast than Gd(DTPA) in kidney and liver
Elimination by the biliary system (gall bladder enhancement) ([1]; 50 μmol/kg, 30′ and 4 h post-injection): strong enhancement of the gall bladder
Removal from the blood ([1]; 50 μmol/kg, vs. Gd-DTPA): faster removal from the blood
Uptake in kidneys and liver ([1]; 50 μmol/kg, vs. Gd-DTPA): Greater uptake
Tissue with highest signal (T1 relaxivity differences in tissue) ([1]; 0.20 mL of 6.3 mM Fe-TOB-HSA, 30 minute period): highest signal is observed in the kidney cortex
R1 (T1 relaxivity) ([2]; 4.7 Tesla MRI scanner, complex alone): 2.5 mM⁻¹ s⁻¹
R1 with HSA ([2]; 4.7 Tesla, with human serum albumin): 3.4 mM⁻¹ s⁻¹
Contrast of brain tumors [3]: produces contrast of brain tumors in mice

CNC[C@H](O)[C@@H](O)[C@H](O)[C@H](O)CO.CNC[C@H](O)[C@@H](O)[C@H](O)[C@H](O)CO.O=C([O-])CN(CCN(CC(=O)[O-])CC(=O)O)CCN(CC(=O)[O-])CC(=O)O.[Gd+3] [Gd(DTPA), gadopentetate dimeglumine, reference compound]
T1 contrast in blood [1, 6]: produces larger contrast in blood

O=C([O-])CN(CCN(CC(=O)[O-])CC(=O)[O-])CC(=O)[O-].[Fe+3] [[Fe(EDTA)]^−]
redox potential [4]: approximately 300 mV
Benzoate oxidation / ROS production [5]: produces ROS
